One assay addresses T1, αER (Homo sapiens, UniProt P03372).
T1 construct: expressed in transfected cells; host or cells: 293 cells (Human Embryonic Kidney, ATCC CRL-1573)
T1 sequence (P03372 1-595): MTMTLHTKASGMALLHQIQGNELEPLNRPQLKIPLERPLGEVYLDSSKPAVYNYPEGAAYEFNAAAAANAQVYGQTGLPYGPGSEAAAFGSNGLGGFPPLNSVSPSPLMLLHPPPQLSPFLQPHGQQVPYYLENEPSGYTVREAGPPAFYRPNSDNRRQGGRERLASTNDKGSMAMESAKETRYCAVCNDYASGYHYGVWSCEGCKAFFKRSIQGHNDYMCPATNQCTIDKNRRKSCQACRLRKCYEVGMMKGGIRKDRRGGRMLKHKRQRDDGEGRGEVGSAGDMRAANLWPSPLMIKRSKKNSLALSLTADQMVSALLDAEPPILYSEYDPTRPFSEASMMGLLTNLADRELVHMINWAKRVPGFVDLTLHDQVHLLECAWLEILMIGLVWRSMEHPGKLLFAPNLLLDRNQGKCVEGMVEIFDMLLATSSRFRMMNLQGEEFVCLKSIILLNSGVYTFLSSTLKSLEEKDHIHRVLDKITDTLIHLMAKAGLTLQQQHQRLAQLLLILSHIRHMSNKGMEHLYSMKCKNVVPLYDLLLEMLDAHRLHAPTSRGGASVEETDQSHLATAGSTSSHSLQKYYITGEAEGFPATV
In words: Cell-based assay for ER transcriptional activity (ERE β-gal reporter), αER-transfected 293 cells. The following applies: 293 cells transfected with αER and ERE reporter; for ERE α-ER Max: maximal response, unit assumed; for EC50: read-out: ERE α-ER EC50. The protocol: (§1) ERs are ligand-dependent transcription factors that bind the promoter regions of genes at a consensus DNA sequence called the estrogen responsive element (ERE). The ER agonist or antagonist activity of a drug was determined by measuring the amount of reporter enzyme activity expressed from a plasmid under the control of an estrogen-responsive element when cells transiently transfected with ER and the reporter plasmid were exposed to drug. These experiments were conducted according to the following methods.
(§2) Estrogen Receptors alpha (αER, Gen Bank accession #M12674), and beta (βER, Gen Bank #X99101 were cloned into the expression vector pSG5 (Stratagene). A trimer of the vitellogenin-gene estrogen response element (vitERE) was synthesized as an oligonucleotide and attached to a beta-globin basal promoter in a construct named pERE3 gal. This response element and promoter were removed from pERE3 gal by digestion with the endonucleases SpeI (filled with Klenow fragment) and HindIII. This blunt/Hind III fragment was cloned into the β-galactosidase (β-gal) enhancer reporter plasmid (pBGALenh, Stratagene). αER and βER plasmids were purified using a the Endo Free Maxi Kit (Qiagen), and the DNA concentration and purity (A260/280 ratio) were determined spectrophotometrically (Pharmacia). Only DNA with A260/280 ratio of 1.8 and a concentration of >1 ug/uL was used for transfections.
(§3) All Transfections are performed in 293 cells (Human Embryonic Kidney cells ATCC #CRL-1573). Cells are grown in DMEM supplemented with 10% FBS, glutamine, sodium pyruvate and penicilin/streptomycin. Cells are grown to 70% confluency and split 1:4.
(§4) • 1. 293 cells are split the night before onto collagen I-coated 150 mm tissue-culture plates (Biocoat, Becton Dickinson #354551) at a density of 60-70% in DMEM Mediatech 17-205-CV) 10% charcoal-stripped FBS (biocell #6201-31). Approximately 1×10^7 cells/plate will yield 70% confluency. • 2. The next morning, 1 hour prior to transfection, the media is changed to fresh DMEM 10% FBS stripped and supplements. • 3. Transfections are performed using the Profection Kit (Promega #E1200). This kit is based on the calcium-phosphate-mediated transfection technique. Reagents are added in sterile polystyrene tubes in the following order:
(§5) Solution A • 15 μg αER or βER • 45 μg Reporter (pBGALenh or ERE3) • 1.5 mL Sterile Water • 186 μL CaCl2 • *Mix gently
(§6) Solution B • 1.5 mL 2× Hank's Buffered Salt Solution • 4. Using a vortex set on low, add solution A to solution B dropwise. The resulting solution should become milky in color. It is important to achieve thorough mixing. The solution is allowed to settle for 30 minutes, then vortexed before adding the solution to cells. • 5. Add the mixture to 150 mm plates dropwise. Mix well by rocking plates back and forth and side to side gently. After an hour, a very fine precipitate should be seen floating on and above cells under 20× magnification. If this precipitate is not observed, the transfection will not be effective. Incubate the cells for 12 hours. Receptor Stimulation: • 1. The day after transfection, cells are washed 2× with calcium- and magnesium-free Mg free PBS containing 1 mM EGTA (pH 7.6). Cells are trypsinized for 2 min with 3 mL of trypsin-EDTA. Trypsin is neutralized with DMEM 10% FCS. Cells are pelleted at 1000×g for 5 min. The cell pellet is then resuspended in 5 mL DMEM plus 2% phenol-red-free FCS supplemented with glutamine, pyruvate, and Penn/Strep. • 2. 50 μl of the resulting cell suspension is plated into each well of 96-well tissue culture dishes (Biocoat B&D #354407) using a multi-channel pipettor. The dishes have been previously loaded with 50 μL of DMSO-solubilized test compounds at twice the test concentration in DMEM. Data reported are either n=4 wells (single poke) and n=2 wells (9-point concentration-response curves). • 3. Cells are incubated overnight at 37° C. in the selected compounds. Reporter Assay: • 1. […]

A further assay has as its target T2, human recombinant ERβ (Homo sapiens, UniProt Q92731).
T2 construct: purchased PanVera (Madison, Wis.)
The assay can be described thus: Fluorescence polarization estrogen receptor (ERFP) binding assay, ERβ. The following applies: for Ki: competition with Fluormone ES2, IC50 converted to Ki by Kenakin formula, read-out: FP β-ER Ki; for FP Selectivity: ratio α-ER Ki / β-ER Ki. The protocol:
(§7) A homogeneous mix-and-measure estrogen receptor (ER) binding assay which utilizes fluorescence polarization (FP) technology is used to identify compounds with affinity for the estrogen receptor. Purchased from PanVera (Madison, Wis.), assay reagents include purified human recombinant ERα, human recombinant ERβ, ES2 screening buffer (100 mM potassium phosphate, pH 7.4, 100 μg/mL bovine gamma globulin), and Fluormone™ ES2.
(§8) For competition binding experiments, dilutions of test compounds are prepared at 2× the final assay concentration in 0.2% DMSO in ES2 Screening buffer on TECAN Genosys, and 25 μL compound/well is dispensed into black Costar ½ volume 96-well plates. Dependent upon a lot specific Kd determination, 10-40 nM ERα or 10-40 nM ERβ and 1 nM Fluormone ES2 are then added to these plates in a final assay volume of 50 μL/well. Plates are gently shaken for at least 5 minutes to mix and incubated for at least 1 hr 45 minutes to achieve equilibrium. (Reaction mixtures are stable for up to 5 hours). After centrifugation to remove air bubbles, plates are read on an LJL Analyst or Acquest equipped with Criterion software at the following settings: Fluorescence Polarization Mode; Static Polarizer on Excitation Side; Dynamic Polarizer on Emission Side; Excitation λ=485×/−5 10 nm; Emission λ=520+/−12.5 nm.
(§9) Polarized fluorescence intensity values are collected and subsequently converted electronically to millipolarization (mp) values. Following data reduction and normalization with Excel and/or Prism software, % Ctrl values at the various test concentrations are used to obtain IC50 values via non-linear regression analysis of a four-parameter logistic equation.
(§10) Because ligand depletion is a consideration in this assay (˜40-60% input ES2 is bound in the assay), IC50 values are converted to Ki values through application of the Kenakin formula, as outlined in the reference below, rather than via the more routinely-used Cheng-Prusoff formula.
(In general: In fluorescence polarisation assays a small probe gives low polarisation when free and higher when bound to something large.)

The next assay concerns the target T3, human recombinant ERα (Homo sapiens, UniProt P03372).
T3 construct: purchased PanVera (Madison, Wis.)
T3 sequence (P03372 1-595): T1 sequence (P03372 1-595)
In words: Fluorescence polarization estrogen receptor (ERFP) binding assay, ERα. The following applies: competition with Fluormone ES2; IC50 converted to Ki by Kenakin formula; read-out: FP α-ER Ki. The method, then: as §7, §8, §9, §10

In another assay the target is T4, βER (Homo sapiens, UniProt Q92731).
T4 construct: expressed in transfected cells; host or cells: 293 cells (Human Embryonic Kidney, ATCC CRL-1573)
T4 sequence (Q92731 54-530 limits assumed): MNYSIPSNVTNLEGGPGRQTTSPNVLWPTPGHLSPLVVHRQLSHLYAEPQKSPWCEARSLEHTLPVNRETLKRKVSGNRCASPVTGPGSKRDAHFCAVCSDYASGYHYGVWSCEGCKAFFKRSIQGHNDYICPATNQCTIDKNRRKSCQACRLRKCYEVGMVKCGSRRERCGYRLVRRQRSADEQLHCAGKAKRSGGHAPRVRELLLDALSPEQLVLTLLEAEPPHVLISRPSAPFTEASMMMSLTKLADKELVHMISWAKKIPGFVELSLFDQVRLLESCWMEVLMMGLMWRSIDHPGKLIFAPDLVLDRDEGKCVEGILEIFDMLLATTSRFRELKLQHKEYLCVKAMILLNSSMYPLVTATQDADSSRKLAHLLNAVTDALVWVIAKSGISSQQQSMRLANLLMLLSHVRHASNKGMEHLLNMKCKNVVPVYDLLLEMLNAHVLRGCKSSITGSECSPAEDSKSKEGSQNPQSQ
The assay can be described thus: Cell-based assay for ER transcriptional activity (ERE β-gal reporter), βER-transfected 293 cells. The following applies: for EC50 / ERE β-ER Max: 293 cells transfected with βER and ERE reporter; for ERE β-ER Max: maximal response, unit assumed; for ERE Selectivity: ratio α-ER EC50 / β-ER EC50. The method, then: as §1, §2, §3, §4, §5, §6

Here are results for three molecules from patent US7256201B2, “Selective estrogen receptor-β ligands” (AstraZeneca AB, priority 2000, dated 2007).

T2 sequence (Q92731 whole entry): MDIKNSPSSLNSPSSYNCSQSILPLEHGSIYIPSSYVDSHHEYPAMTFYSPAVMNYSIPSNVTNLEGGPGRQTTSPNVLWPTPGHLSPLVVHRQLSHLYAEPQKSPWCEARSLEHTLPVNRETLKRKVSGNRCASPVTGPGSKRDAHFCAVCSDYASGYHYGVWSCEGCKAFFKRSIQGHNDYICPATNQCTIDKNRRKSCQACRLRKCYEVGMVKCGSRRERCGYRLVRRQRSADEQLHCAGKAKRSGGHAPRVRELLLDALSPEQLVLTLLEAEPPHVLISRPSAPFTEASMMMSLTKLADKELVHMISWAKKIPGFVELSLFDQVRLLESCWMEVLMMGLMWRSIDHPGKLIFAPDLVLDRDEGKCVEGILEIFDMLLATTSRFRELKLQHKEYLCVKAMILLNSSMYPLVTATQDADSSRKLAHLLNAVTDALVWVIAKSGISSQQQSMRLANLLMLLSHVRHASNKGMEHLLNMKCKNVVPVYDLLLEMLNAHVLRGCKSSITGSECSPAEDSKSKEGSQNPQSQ

With `Cc1ccc(N2CCc3cc(O)ccc3C2c2ccoc2)cc1O` (stereo not drawn) [Example 21, 1-Furan-3-yl-2-(3-hydroxy-4-methyl-phenyl)-1,2,3,4-tetrahydro-isoquinolin-6-ol], on αER, the ERE α-ER Max was 77% and the EC50 (as a rule, the midpoint of the concentration-response curve) is 0.0008 µM. Also, at human recombinant ERβ, the Ki (usually the equilibrium dissociation constant of an inhibitor or competing ligand from its target) amounted to 0.0038 µM and the “FP Selectivity” value is reported as 6.0. Besides, at human recombinant ERα, the Ki amounted to 0.022 µM. Moreover, at βER, the midpoint of the response, the EC50, lay at 0.0007 µM; the ERE β-ER Max amounted to 106%; the “ERE Selectivity” value is on record as 1.1.

As to `Oc1ccc(N2Cc3ccc(O)cc3C2)cc1` [Example 25, 5-Hydroxy-2-(4-hydroxyphenyl)isoindoline], at αER, the ERE α-ER Max amounted to 60% and the EC50 was 0.192 µM. For the same molecule, on human recombinant ERβ, the Ki was determined as 0.055 µM and the “FP Selectivity” value was 3.5. In addition, on human recombinant ERα, the Ki was found to be 0.19 µM. Besides, at βER, a half-maximal effect (EC50) was put at 0.161 µM, the ERE β-ER Max worked out at 77% and the “ERE Selectivity” value was 1.2.

Consider `CCC1c2cc(O)ccc2CN1c1ccc(O)cc1` (stereo not drawn) [Example 26, 1-Ethyl-6-hydroxy-2-(4-hydroxyphenyl)isoindoline], for which, on αER, the ERE α-ER Max was determined as 102% and the EC50 stood at 0.073 µM. For the same molecule, at human recombinant ERβ, the inhibitory constant (Ki) stood at 0.16 µM and the “FP Selectivity” value is 1.3. Also, the Ki on human recombinant ERα is 0.2 µM. On βER, the EC50 was 0.079 µM, the ERE β-ER Max amounted to 85% and the “ERE Selectivity” value is listed as 0.9.
